Test results as given in publication PMC6691587, “New CXCR1/CXCR2 inhibitors represent an effective treatment for kidney or head and neck cancers sensitive or refractory to reference treatments” (Theranostics, 2019).
“And” between values parts separate entries of the source, which are not always exact repeats. Identical values can stand only once. Like-named read-outs stand apart in the source and are kept apart here.

Legend:
HuVEC = experiment: XTT cell viability assay, HuVEC; format: cell-based, human; conditions: 48 h, CXCL5 or CXCL7 100 ng/ml
Description: (§1) Fifty microliters of sodium 3′-[1-phenylaminocarbonyl)-3,4-tetrazolium]-bis(4-methoxy-6-nitro) benzene sulfonic acid hydrate (XTT) reagent was added to each well. The assay is based on the cleavage of the yellow tetrazolium salt XTT to form an orange formazan dye by metabolically active cells. This bio-reduction occurs in viable cells only and is related to NAD(P)H production through glycolysis. Therefore, the amount of formazan dye measured at 490 nm directly correlated with the number of metabolically active cells reflecting cell proliferation and viability. Each assay was performed in quadruplicate.

CAL27 = experiment: XTT cell viability assay, CAL27 HNSCC cells; format: cell-based, human; conditions: for IC50: Homo sapiens, CAL-27
In short: (§2)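 Read-out: formazan absorbance at 490 nm after XTT addition, proportional to metabolically active (viable, proliferating) cells. Run in quadruplicate.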

caspase 3 = experiment: Caspase 3 activity assay; format: cell-based, human; conditions: 786, 786R, CAL27, CAL27R; 2.5 and 5 µM, 48 h
Description: Caspase assays have already been described. Briefly, the caspase 3 activity was assessed in quadruplicate using z-DEVD-AMC as substrate and the fluorescence were assessed.

CAL33 = experiment: Ectopic model of HNSCC (CAL33 xenograft); format: in vivo, nude (nu/nu) female mice
Description: (§3) One microgram of total RNA was used for the reverse transcription, using the QuantiTect Reverse Transcription kit (QIAGEN, Hilden, Germany), with blend of oligo (dT) and random primers to prime first-strand synthesis. SYBR master mix plus (Eurogentec) was used for qPCR. The mRNA level was normalized to 36B4 mRNA. The sequences of oligo nucleotides used in our experiments are describe in Table S1.
(§4) These studies were carried out in strict accordance with the recommendations in the Guide for the Care and Use of Laboratory Animals. Our experiments were approved by the ''Comité National Institutionnel d'Ethique pour l'Animal de Laboratoire'' (reference: PEA-255 and PEA-277). Cells were injected subcutaneously into the flank of 5-week-old nude (nu/nu) female mice (Janvier). When the tumor reached 100 mm^3, mice were treated. The tumor volume was determined with a caliper (v = L*l2*0.5).
One million CAL33 were injected subcutaneously.
(§5) Sections of formol-fixed and paraffin-embedded tumors were incubated with monoclonal anti-Ki67 (clone MIB1, DAKO) or anti-CD31 (clone MEC 13.3, BD Pharmingen) antibodies. A biotinylated secondary antibody (DAKO) was applied and binding was detected with the substrate diaminobenzidine against a hematoxylin counterstain.

A498 = experiment: XTT cell viability assay, A498 RCC cells; format: cell-based, human; conditions: for IC50: Homo sapiens, A498
In short: as §2

SKM1 = experiment: XTT cell viability assay, SKM1 MDS cells; format: cell-based, human; conditions: Homo sapiens, SKM-1, 48 h, SD 10%, mean of three experiments, read-out: IC50 SK (MDS)
In short: as §2

[1] = system: primary normal kidney cells (15S); experiment: Cell viability, primary normal kidney cells; format: cell-based
Description: as §1
For the experiments with C29, we confirmed all the results by evaluating the cell viability. Cell viability and cell death was assessed using the ADAM-MC apparatus (NanoEnTek, Guro-gu, Seoul, Korea) based on fluorescent propidium iodide staining according to the manufacturer's instructions.
(§6) To determine the selectivity of the activity of the substances tested, the selectivity index (SI) was calculated according to the equation previously described where SI = IC50 of a compound in a normal cell line/IC50 of the same compound in cancer cell line. The IC50 is the concentration required to kill 50% of the cell population.

A498 cells = experiment: Ectopic model of RCC (A498 xenograft); format: in vivo, nude (nu/nu) female mice
Description: as §3, §4
1-Seven million A498 cells were injected subcutaneously. Mice were treated five times a week for 4 weeks, by gavage with placebo (dextrose water vehicle) or C29 (50 mg/kg).
as §5

MDA-MD-231 = experiment: XTT cell viability assay, breast cancer cells; format: cell-based, human; conditions: Homo sapiens, 48 h, SD 10%, mean of three experiments
In short: as §2

normal cells (15S) = experiment: FACS analysis of apoptotic markers, normal cells; format: cell-based; conditions: C29 at 1 µmol/L
Description: Apoptosis analysis: After stimulation, cells were washed with ice-cold PBS and were stained with the annexin-V-fluo staining kit (Roche, Meylan, France) according to the manufacturer's procedure. Fluorescence was measured using the FL2 (AV) and FL3 (propidium iodide, PI) channels of a fluorescence-activated cell sorter apparatus (Calibur cytometer).

Molm14 = experiment: XTT cell viability assay, Molm14 AML cells; format: cell-based, human; conditions: Homo sapiens, MOLM-14, 48 h, SD 10%, mean of three experiments
In short: as §2

786-O = experiment: XTT cell viability assay, 786-O RCC cells; format: cell-based, human; conditions: for IC50: Homo sapiens, 786-0
In short: as §2

[2] = system: uveal melanoma cells (Mel202); experiment: Cell viability, uveal melanoma cells; format: cell-based
Description: as §1, §6

[3] = Pharmacokinetic parameters after oral administration; format: in vivo; conditions: plasma, CD-1 mice, oral gavage 50 mg/kg
Description: The in vivo pharmacokinetic parameters were determined in CD-1 mice at a dose of 50 mg/kg after oral administration. The plasma samples (400 µL) were mixed with acetonitrile (1 mL) to precipitate the proteins and extract the compound. After mixing and sonication, proteins were precipitated by centrifugation and the supernatants were analyzed by UPLCMS/MS.

OCI-AML3 = experiment: XTT cell viability assay, OCI-AML3 AML cells; format: cell-based, human; conditions: Homo sapiens, OCI-AML-3, 48 h, SD 10%, mean of three experiments, read-out: IC50 L3 (AML)
In short: as §2

[4] = XTT, 1 to 10 µM 48 h, 2.5 µM 24 to 96 h
[5] = CAL33 xenograft, 100 mg/kg gavage

SMILES: O=C(Nc1cccc(Cl)c1)Nc1nc2ccc([N+](=O)[O-])cc2s1 [C29]
- basal and CXCL5/CXCL7-dependent HuVECs viability (HuVEC): inhibited
- IC50 (CAL27; CXCR1+/CXCR2+, read-out: IC50 CAL27): 2500 nM
- IC50 (CAL27; XTT assay, 48 h, SD 10%, mean of three experiments, read-out: IC50 27 (HNSCC)): 2500 nM
- Selectivity index CAL27 (CAL27; SI = IC50 in normal cells (15S)/IC50 in CAL27): 5
- effect on CAL27 HNSCC cell viability compared with cisplatin (CAL27; [4]): greater than that of cisplatin
- caspase 3 activity (caspase 3): increase
- mRNA level of murine CD31, experimental HNSCC (CAL33; CAL33 xenograft): decreased
- decrease in the tumor weight, HNSCC (CAL33; [5]): 65%
- proliferation marker Ki-67, experimental HNSCC (CAL33; [5]): decreased
- weight loss of the animals, HNSCC model (CAL33; [5]): did not observe any weight loss
- decrease of the tumor volume at the end of the experiment, HNSCC (CAL33; CAL33 xenograft, 100 mg/kg gavage five times a week for two weeks): more than 65%
- PI3K/AKT and ERK pathways in tumor lysates, experimental HNSCC (CAL33; immunoblotting, CAL33 xenograft): both pathways
- efficacy on experimental HNSCC compared with danirixin and cisplatin (CAL33; oral gavage 100 mg/kg five times a week): more efficient than danirixin, at the same dose, or than the reference treatment with cisplatin
- mRNA levels of ERL+CXCL cytokines, experimental HNSCC (CAL33; qPCR, CAL33 xenograft): Only CXCL5 was decreased
- IC50 (A498; CXCR1+/CXCR2+, read-out: IC50 A498): 2500 nM
- IC50 (A498; XTT assay, 48 h, SD 10%, mean of three experiments, read-out: IC50 498 (Kidney RCC)): 2500 nM
- Selectivity index A498 (A498; SI = IC50 in normal cells (15S)/IC50 in A498): 5
- IC50 (SKM1): 5000 nM
- IC50 ([1]; CXCR1-/CXCR2-, normal primary kidney cells): 12500 nM
- Selectivity index 15S ([1]; SI = IC50 in normal cell line (15S)/IC50 in this cell line, reference): 1
- effect on primary normal kidney cells (15S) ([1]; even at a higher concentration (5 µmol/L)): no effect
- mRNA level of murine CD31, experimental RCC (A498 cells): decreased
- decrease in the tumor weight, RCC (A498 cells; 50 mg/kg gavage): 40%
- proliferation marker Ki-67, experimental RCC (A498 cells; 50 mg/kg gavage): decreased
- weight loss of the animals, RCC model (A498 cells; 50 mg/kg gavage): did not observe any weight loss
- decrease of the tumor volume at the end of the experiment, RCC (A498 cells; 50 mg/kg gavage five times a week for 4 weeks): more than 65%
- PI3K/AKT and ERK pathways in tumor lysates, experimental RCC (A498 cells; immunoblotting): inhibited PI3K/AKT but not the ERK pathway
- mRNA levels of ERL+CXCL cytokines (CXCL5/7/8), experimental RCC (A498 cells; qPCR, VEGFA not decreased): significantly decreased
- IC50 (MDA-MD-231): 2500 nM
- apoptotic markers in normal cells (15S) (normal cells (15S)): not the case for normal cells
- IC50 (Molm14): 4000 nM
- IC50 (786-O; CXCR1+/CXCR2+, read-out: IC50 786-O): 2000 nM
- IC50 (786-O; XTT assay, 48 h, SD 10%, mean of three experiments, read-out: IC50 786 (Kidney RCC)): 2000 nM
- Selectivity index 786-O (786-O; SI = IC50 in normal cells (15S)/IC50 in 786-O): 6.25
- viability of sensitive 786-O RCC cells compared with sunitinib (786-O; [4]): as efficiently as sunitinib
- proliferation/survival of uveal melanoma cells (Mel202) ([2]; 2.5 µmol/L): did not affect
- IC50 ([2]; Mel202, CXCR1-/CXCR2-): 10000 nM
- Selectivity index Mel202 ([2]; SI = IC50 in normal cells (15S)/IC50 in Mel202): 1.25
- half-life ([3]; CD-1, mouse, po, 50 mg/kg, formulated at 7.6 mg/mL, read-out: half-life (t ½)): 3.17 h
- AUC ([3]; mouse): ~1420 ng·h/mL
- Cmax ([3]; mouse): 900 ng/mL and 2.6 µM
- Tmax ([3]; mouse): 0.5 h
- AUC(0-t) ([3]; mouse, read-out: AUC last PO (converted)): 1420 ng·h/mL
- IC50 (OCI-AML3): 4000 nM
